Data as given in patent publication US8399681B2, “Substituted aminothiazolone indazoles as estrogen related receptor-alpha modulators” (Janssen Pharmaceutica NV, priority 2009, dated 2013).

Molecular target: T1, ERR1 (also known as ERR-α or ERR-1) (Homo sapiens, UniProt P11474)
T1 sequence (P11474 193-421 limits assumed): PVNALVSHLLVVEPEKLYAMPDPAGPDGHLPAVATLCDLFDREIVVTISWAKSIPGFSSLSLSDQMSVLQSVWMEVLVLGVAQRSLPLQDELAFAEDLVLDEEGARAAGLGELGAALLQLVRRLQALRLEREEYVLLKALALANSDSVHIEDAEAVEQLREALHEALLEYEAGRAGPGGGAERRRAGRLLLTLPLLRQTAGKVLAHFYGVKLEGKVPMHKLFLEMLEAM
Experiment: TR-FRET assay (disruption of co-activator peptide binding)
Type: biochemical
Conditions: 6His-tagged ERR1 LBD, GST-hSRC2 co-activator polypeptide; average of 3 independent experiments
Summary of the method: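 His6-ERR1 LBD (6 nM) with GST-SRC-2 peptide (6 nM), anti-GST Eu cryptate (30 nM) and anti-His XL665 (7.5 nM) in Tris pH 8/KCl/DTT/BSA buffer, equilibrated 4-18 h at 25 °C. Ex 340, em 615/665 nm; hyperbolic dose-response fit, mean of 3 experiments.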

Structure (SMILES) | EC50
CN1CCN(C2=NC(=O)/C(=C/c3ccc4c(cnn4Cc4ccc(Cl)cc4I)c3)S2)CC1 [Example 96, 5-[1-(4-Chloro-2-iodo-benzyl)-1H-indazol-5-ylmethylene]-2-(4-methyl-piperazin-1-yl)-thiazol-4-one] | 64 nM
CN(C)CC1CN(C2=NC(=O)/C(=C/c3ccc4c(cnn4Cc4ccc(C(F)(F)F)cc4C(F)(F)F)c3)S2)CCO1 (stereo not drawn) [Example 171, 5-[1-(2,4-Bis-trifluoromethyl-benzyl)-1H-indazol-5-ylmethylene]-2-(2-dimethylaminomethyl-morpholin-4-yl)-thiazol-4-one] | 38 nM
CN1CCN(C2=NC(=O)/C(=C/c3ccc4c(cnn4Cc4ccc(C(F)(F)F)cc4C4CC4)c3)S2)CC1 [Example 29, 5-[1-(2-Cyclopropyl-4-trifluoromethyl-benzyl)-1H-indazol-5-ylmethylene]-2-(4-methyl-piperazin-1-yl)-thiazol-4-one] | 38 nM
O=C1N=C(N2CCCN(CCO)CC2)S/C1=C\c1ccc2c(cnn2Cc2ccc(Cl)cc2C(F)(F)F)c1 [Example 76, 5-[1-(4-Chloro-2-trifluoromethyl-benzyl)-1H-indazol-5-ylmethylene]-2-[4-(2-hydroxy-ethyl)-[1,4]diazepan-1-yl]-thiazol-4-one] | 18.3 nM
CC(=O)N[C@@H]1C[C@H](CO)N(C2=NC(=O)/C(=C/c3ccc4c(cnn4Cc4ccc(Cl)cc4C(F)(F)F)c3)S2)C1 [Example 261, N-{(3R,5R)-1-[5-({1-[4-Chloro-2-(trifluoromethyl)benzyl]-1H-indazol-5-yl}methylidene)-4-oxo-4,5-dihydro-1,3-thiazol-2-yl]-5-(hydroxymethyl)pyrrolidin-3-yl}acetamide] | 20 nM
CC(=O)OC[C@@H]1CN(C2=NC(=O)/C(=C/c3ccc4c(cnn4Cc4ccc(C(F)(F)F)cc4C(F)(F)F)c3)S2)CCO1 [Example 280, {(2S)-4-[5-({1-[2,4-Bis(trifluoromethyl)benzyl]-1H-indazol-5-yl}methylidene)-4-oxo-4,5-dihydro-1,3-thiazol-2-yl]morpholin-2-yl}methyl acetate] | 3 nM
CONC(=O)C1CN(C2=NC(=O)/C(=C/c3ccc4c(cnn4Cc4ccc(Cl)cc4C(F)(F)F)c3)S2)CCN1 (stereo not drawn) [Example 271, 4-[5-({1-[4-Chloro-2-(trifluoromethyl)benzyl]-1H-indazol-5-yl}methylidene)-4-oxo-4,5-dihydro-1,3-thiazol-2-yl]-N-methoxypiperazine-2-carboxamide] | 9 nM
O=C1N=C(N2CCC[C@@H]2C(=O)O)S/C1=C\c1ccc2c(cnn2Cc2ccc(C(F)(F)F)cc2C(F)(F)F)c1 [Example 43, 1-{5-[1-(2,4-Bis-trifluoromethyl-benzyl)-1H-indazol-5-ylmethylene]-4-oxo-4,5-dihydro-thiazol-2-yl}-pyrrolidine-2-(R)-carboxylic acid] | 11 nM
C[C@@H]1CN(C)CCN1C1=NC(=O)/C(=C/c2ccc3c(cnn3Cc3ccc(Cl)cc3C(F)(F)F)c2)S1 [Example 193, 5-({1-[4-Chloro-2-(trifluoromethyl)benzyl]-1H-indazol-5-yl}methylidene)-2-(2-(R),4-dimethylpiperazin-1-yl)-1,3-thiazol-4(5H)-one] | 11 nM
Cc1nnc(C)n1C1CCN(C2=NC(=O)/C(=C/c3ccc4c(cnn4Cc4ccc(Cl)cc4C(F)(F)F)c3)S2)CC1 [Example 147, 5-[1-(4-Chloro-2-trifluoromethyl-benzyl)-1H-indazol-5-ylmethylene]-2-[4-(3,5-dimethyl-[1,2,4]triazol-4-yl)-piperidin-1-yl]-thiazol-4-one] | 11 nM
O=C1N=C(N2CCCC2)S/C1=C\c1ccc2c(cnn2Cc2ccc(Cl)cc2C(F)(F)F)c1 [Example 162, 5-[1-(4-Chloro-2-trifluoromethyl-benzyl)-1H-indazol-5-ylmethylene]-2-pyrrolidin-1-yl-thiazol-4-one] | 27 nM
O=C1N=C(N2CCC(O)(C(=O)O)CC2)S/C1=C\c1ccc2c(cnn2Cc2ccc(C(F)(F)F)cc2C(F)(F)F)c1 [Example 269, 1-[5-({1-[2,4-Bis(trifluoromethyl)benzyl]-1H-indazol-5-yl}methylidene)-4-oxo-4,5-dihydro-1,3-thiazol-2-yl]-4-hydroxypiperidine-4-carboxylic acid] | 15 nM
O=C1N=C(N2C[C@@H]3C[C@H]2CN3CCO)S/C1=C\c1ccc2c(cnn2Cc2ccc(Cl)cc2C(F)(F)F)c1 [Example 80, 5-[1-(4-Chloro-2-trifluoromethyl-benzyl)-1H-indazol-5-ylmethylene]-2-[5-(2-hydroxy-ethyl)-2S,5S-diaza-bicyclo[2.2.1]hept-2-yl]-thiazol-4-one] | 5.7 nM
O=C1N=C(N2CCC(O)(Cn3ccnc3)CC2)S/C1=C\c1ccc2c(cnn2Cc2ccc(Cl)cc2C(F)(F)F)c1 [Example 164, 5-[1-(4-Chloro-2-trifluoromethyl-benzyl)-1H-indazol-5-ylmethylene]-2-(4-hydroxy-4-imidazol-1-ylmethyl-piperidin-1-yl)-thiazol-4-one] | 12 nM
O=C1N=C(N2CCNC[C@@H]2C(=O)O)S/C1=C\c1ccc2c(cnn2Cc2ccc(C(F)(F)F)cc2C(F)(F)F)c1 [Example 47, 1-{5-[1-(2,4-Bis-trifluoromethyl-benzyl)-1H-indazol-5-ylmethylene]-4-oxo-4,5-dihydro-thiazol-2-yl}piperazine-2-(R)-carboxylic acid] | 8.2 nM
COC(=O)CCNC(=O)C1CN(C2=NC(=O)/C(=C/c3ccc4c(cnn4Cc4ccc(Cl)cc4C(F)(F)F)c3)S2)C1 [Example 152, 3-[(1-{5-[1-(4-Chloro-2-trifluoromethyl-benzyl)-1H-indazol-5-ylmethylene]-4-oxo-4,5-dihydro-thiazol-2-yl}-azetidine-3-carbonyl)-amino]-propionic acid methyl ester] | 24 nM
COc1ccc(Cn2ncc3cc(/C=C4\SC(N5CCC[C@H](N)C5)=NC4=O)ccc32)c(C(F)(F)F)c1 [Example 51, 2-(3-(S)-Amino-piperidin-1-yl)-5-[1-(4-methoxy-2-trifluoromethyl-benzyl)-1H-indazol-5-ylmethylene]-thiazol-4-one] | 9 nM
CCN1CCN(C2=NC(=O)/C(=C/c3ccc4c(cnn4Cc4ccc(C(F)(F)F)cc4C(F)(F)F)c3)S2)CC1 [Example 67, 5-[1-(2,4-Bis-trifluoromethyl-benzyl)-1H-indazol-5-ylmethylene]-2-(4-ethyl-piperazin-1-yl)-thiazol-4-one] | 21 nM
O=C1N=C(N2CCN(C3CC3)CC2)S/C1=C\c1ccc2c(cnn2Cc2ccc(C(F)(F)F)cc2C(F)(F)F)c1 [Example 122, 5-[1-(2,4-Bis-trifluoromethyl-benzyl)-1H-indazol-5-ylmethylene]-2-(4-cyclopropyl-piperazin-1-yl)-thiazol-4-one] | 41.8 nM
CN1C[C@@H]2C[C@H]1CN2C1=NC(=O)/C(=C/c2ccc3c(cnn3Cc3ccc(C(F)(F)F)cc3C(F)(F)F)c2)S1 [Example 70, 5-[1-(2,4-Bis-trifluoromethyl-benzyl)-1H-indazol-5-ylmethylene]-2-(5-methyl-2S,5S-diaza-bicyclo[2.2.1]hept-2-yl)-thiazol-4-one] | 11 nM
CN1CCN(C2=NC(=O)/C(=C/c3ccc4c(cnn4Cc4ccc(C(N)=O)cc4C(F)(F)F)c3)S2)CC1 [Compound 20, 4-{5-[2-(4-Methyl-piperazin-1-yl)-4-oxo-4H-thiazol-5-ylidenemethyl]-indazol-1-ylmethyl}-3-trifluoromethyl-benzamide] | 300 nM
CN1CCN(C2=NC(=O)/C(=C/c3ccc4c(cnn4Cc4ccc(C(C)(C)O)cc4C(F)(F)F)c3)S2)CC1 [Example 242, 5-({1-[4-(1-Hydroxy-1-methylethyl)-2-(trifluoromethyl)benzyl]-1H-indazol-5-yl}methylidene)-2-(4-methylpiperazin-1-yl)-1,3-thiazol-4(5H)-one] | 30 nM
O=C1N=C(N2C[C@@H]3C[C@H]2CN3)S/C1=C\c1ccc2c(cnn2Cc2ccc(C(F)(F)F)cc2C(F)(F)F)c1 [Example 69, 5-[1-(2,4-Bis-trifluoromethyl-benzyl)-1H-indazol-5-ylmethylene]-2-(2S,5S-diaza-bicyclo[2.2.1]hept-2-yl)-thiazol-4-one] | 26 nM
O=C1N=C(N2CCN(CCO)CC2)S/C1=C\c1ccc2c(cnn2Cc2ccc(C3CC3)cc2C(F)(F)F)c1 [Example 31, 5-[1-(4-Cyclopropyl-2-trifluoromethyl-benzyl)-1H-indazol-5-ylmethylene]-2-[4-(2-hydroxy-ethyl)-piperazin-1-yl]-thiazol-4-one] | 4.6 nM
O=C1N=C(N2CCCNCC2)S/C1=C\c1ccc2c(cnn2Cc2ccc(C(F)(F)F)cc2C(F)(F)F)c1 [Example 55, 5-[1-(2,4-Bis-trifluoromethyl-benzyl)-1H-indazol-5-ylmethylene]-2-[1,4]diazepan-1-yl-thiazol-4-one] | 61 nM
COc1ccc(Cn2ncc3cc(/C=C4\SC(N5CC[C@H]5C(=O)O)=NC4=O)ccc32)c(C(F)(F)F)c1 [Example 50, 1-{5-[1-(4-Methoxy-2-trifluoromethyl-benzyl)-1H-indazol-5-ylmethylene]-4-oxo-4,5-dihydro-thiazol-2-yl}-azetidine-2-(S)-carboxylic acid] | 7.8 nM
N[C@@H]1C[C@H](CO)N(C2=NC(=O)/C(=C/c3ccc4c(cnn4Cc4ccc(C(F)(F)F)cc4C(F)(F)F)c3)S2)C1 [Example 258, 2-[(2R,4R)-4-Amino-2-(hydroxymethyl)pyrrolidin-1-yl]-5-({1-[2,4-bis(trifluoromethyl)benzyl]-1H-indazol-5-yl}methylidene)-1,3-thiazol-4(5H)-one] | 30 nM
